Measurements taken from US7495027B2, “3-aryl-4-hydroxyfuranone compounds and the human and animal health use thereof” (Wyeth, priority 2003, dated 2009).
pIC50: −log10 of the molar value. In brackets after ≈: the same amount, converted by molar mass. Where two headings read alike, the source gives them in different places.

Assays:
[1] = molecular target: E. coli Enopyruvyl-UPD-N-acetylglucosamine reductase, Mur B (Escherichia coli, UniProt P08373); experiment: biochemical; details: (E) E. coli enzyme; for IC50: read-out: MurB IC50 (converted)
[2] = molecular target: T1, S. aureus Uridine-diphosphate-N-acetylmuramoyl-L-alanine: D-glutamate liease, MurD (Staphylococcus aureus, UniProt Q2FZ92); experiment: biochemical; details: (S) S. aureus enzyme
T1 sequence (Q2FZ92 1-449): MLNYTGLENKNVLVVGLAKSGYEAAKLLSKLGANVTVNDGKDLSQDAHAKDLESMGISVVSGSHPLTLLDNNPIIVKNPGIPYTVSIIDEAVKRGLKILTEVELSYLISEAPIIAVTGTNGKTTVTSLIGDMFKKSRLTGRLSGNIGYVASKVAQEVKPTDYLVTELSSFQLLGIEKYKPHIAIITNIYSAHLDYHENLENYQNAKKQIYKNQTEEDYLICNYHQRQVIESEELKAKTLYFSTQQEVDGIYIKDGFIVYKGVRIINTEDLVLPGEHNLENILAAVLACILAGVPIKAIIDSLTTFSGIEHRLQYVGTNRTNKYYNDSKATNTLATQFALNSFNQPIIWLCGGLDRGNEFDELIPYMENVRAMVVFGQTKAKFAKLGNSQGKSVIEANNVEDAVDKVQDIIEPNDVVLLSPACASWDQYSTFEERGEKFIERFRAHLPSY
How it was run: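 MurD, which catalyses the fourth step of cell wall biosynthesis, was tested for inhibition by compounds. Compounds were made up as 10 mg/mL DMSO stocks and diluted to 100 μg/mL in 50 mM Tris/HCl, pH 8.5.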

staphylococci = experiment: Minimum inhibitory concentration, microdilution broth method, staphylococci; format: cell-based; details: Mueller-Hinton broth, 18-22 hours at 35° C.; for MIC: Staphylococcus aureus
How it was run: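 Strep: Mueller-Hinton + 5% horse blood (LHB). Enterococci, staph: Mueller-Hinton broth alone. Microdilution format per NCCLS M7-A5 2000; isolates include resistant clinical strains.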

[3] = molecular target: T2, S. aureus Uridine-diphosphate-N-acetvimuramoyl: L-alanine lipase, MurC (Staphylococcus aureus, UniProt Q2FXJ0); experiment: biochemical; details: (S) S. aureus enzyme; for IC50: read-out: MurC IC50 (converted)
T2 sequence (Q2FXJ0 1-437): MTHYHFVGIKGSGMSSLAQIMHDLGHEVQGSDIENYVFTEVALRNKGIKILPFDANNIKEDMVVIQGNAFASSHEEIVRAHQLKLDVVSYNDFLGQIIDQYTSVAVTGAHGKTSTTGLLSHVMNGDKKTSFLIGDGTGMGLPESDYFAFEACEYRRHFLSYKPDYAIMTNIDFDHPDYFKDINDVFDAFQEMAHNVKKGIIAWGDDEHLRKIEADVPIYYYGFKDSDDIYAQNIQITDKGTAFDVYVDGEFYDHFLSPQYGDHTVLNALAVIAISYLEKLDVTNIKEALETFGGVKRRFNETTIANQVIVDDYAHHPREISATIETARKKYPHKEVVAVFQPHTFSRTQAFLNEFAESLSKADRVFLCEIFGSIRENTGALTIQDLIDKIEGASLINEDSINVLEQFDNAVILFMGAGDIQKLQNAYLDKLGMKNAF
How it was run: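 MurC assay: enzyme (E. coli 100 μg/mL, S. aureus 70 μg/mL stock) with L-Ala and test compound, pre-incubated 10 min at 23 °C, then UDP-MurNac added, 10 min at 37 °C. Phosphate released detected by malachite green–molybdate at 660 nm; IC50 by linear regression.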

[4] = S. aureus GC 1131, read-out: MIC S. aureus GC 1131
[5] = S. aureus GC 4543, read-out: MIC S. aureus GC 4543

E. coli Enopyruvyl-UPD-N-acetylglucosamine reductase, Mur B, sequence (P08373 whole entry): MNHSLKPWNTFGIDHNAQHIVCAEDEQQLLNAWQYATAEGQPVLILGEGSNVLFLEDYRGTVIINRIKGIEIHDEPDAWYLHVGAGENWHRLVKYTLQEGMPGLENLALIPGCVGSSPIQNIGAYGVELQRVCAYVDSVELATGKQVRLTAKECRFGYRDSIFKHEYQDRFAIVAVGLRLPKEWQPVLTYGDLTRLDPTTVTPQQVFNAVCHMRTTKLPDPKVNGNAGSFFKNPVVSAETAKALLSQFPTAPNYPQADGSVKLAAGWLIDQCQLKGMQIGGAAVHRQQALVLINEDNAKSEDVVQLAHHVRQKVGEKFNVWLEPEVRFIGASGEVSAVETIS

| Compound | IC50 [1] | pIC50 [2] | MIC (staphylococci; [4]) | MIC (staphylococci; [5]) | IC50 [3] | MurB IC50 [1] | MurD IC50 [2] | MIC S. aureus GC 1131 (staphylococci; S. aureus GC 1131) | MIC S. aureus GC 4543 (staphylococci; S. aureus GC 4543) | MurC IC50 [3] |
| --- | --- | --- | --- | --- | --- | --- | --- | --- | --- | --- |
| O=C1O/C(=C\c2cccnc2)C(O)=C1c1ccc(-c2ccccc2)cc1 [Example 101] | > 73.2 µM | < 4.14 | > 128 µg/mL | > 128 µg/mL | 67.4 µM |  |  |  |  |  |
| O=C1O/C(=C\c2cccc(C(F)(F)F)c2)C(O)=C1c1ccc(-c2ccccc2)c(F)c1 [Example 106] |  | 4.43 | 2 µg/mL (≈ 4.69 µM) | 2 µg/mL (≈ 4.69 µM) | 28.1 µM | 12 (E) μg/mL |  |  |  |  |
| O=C1O/C(=C\c2cccc(-c3cccc(Cl)c3)c2)C(O)=C1c1cccc(Cl)c1 [Example 134] |  | 4.71 | > 128 µg/mL | 1 µg/mL (≈ 2.44 µM) | 51.3 µM | 4 µg/mL |  |  |  |  |
| O=C1O/C(=C\c2cccc(-c3cc(Cl)cc(Cl)c3)c2)C(O)=C1c1cc(Cl)cc(Cl)c1 [Example 136] |  | 4.68 | 0.25 µg/mL (≈ 0.523 µM) | 0.25 µg/mL (≈ 0.523 µM) | > 52.3 µM | 3 µg/mL |  |  |  |  |
| O=C1O/C(=C\c2ccccc2-c2ccc(Cl)cc2)C(O)=C1c1ccc(Cl)cc1 [Example 137] | 51.3 µM | 4.36 | 8 µg/mL (≈ 19.5 µM) | 8 µg/mL (≈ 19.5 µM) | 56.2 µM |  |  |  |  |  |
| O=C1O/C(=C\c2ccc(Cl)cc2)C(O)=C1c1ccc(-c2ccccc2)c(F)c1 [Example 138] | 56 µM | 4.45 | 4 µg/mL (≈ 10.2 µM) | 4 µg/mL (≈ 10.2 µM) | 20.4 µM |  |  |  |  |  |
| O=C1O/C(=C\c2ccccc2-c2cccc(Cl)c2)C(O)=C1c1cccc(Cl)c1 [Example 140] | 9.77 µM | 4.31 | 1 µg/mL (≈ 2.44 µM) | 1 µg/mL (≈ 2.44 µM) | 19.5 µM |  |  |  |  |  |
| O=C1O/C(=C\c2ccccc2-c2ccc(Cl)c(Cl)c2)C(O)=C1c1ccc(Cl)c(Cl)c1 [Example 141] |  | 5.20 | 0.5 µg/mL (≈ 1.05 µM) | 0.25 µg/mL (≈ 0.523 µM) | > 52.3 µM | 2 (E); 2 (S) μg/mL |  |  |  |  |
| O=C1O/C(=C\c2cc(C(F)(F)F)ccc2Cl)C(O)=C1c1ccc(N2CCOCC2)c(F)c1 [Example 142] |  |  |  |  |  | 10 µg/mL | >25 (S) μg/mL | 64 µg/mL (≈ 136 µM) | >128 µg/mL | >25 (S) μg/mL |
| O=C1O/C(=C\c2ccc(-c3ccccc3)cc2)C(O)=C1c1csc2ccccc12 [Example 143] | 17.7 µM | 4.60 | 8 µg/mL (≈ 20.2 µM) | 8 µg/mL (≈ 20.2 µM) | 12.6 µM |  |  |  |  |  |
| O=C1O/C(=C\c2ccc(-c3ccccc3)cc2)C(O)=C1c1cccs1 [Example 144] | 57.7 µM | 4.24 | 16 µg/mL (≈ 46.2 µM) | 16 µg/mL (≈ 46.2 µM) | 28.9 µM |  |  |  |  |  |
| O=C1O/C(=C\c2ccc(C(F)(F)F)cc2)C(O)=C1c1ccc(-c2ccccc2)cc1 [R=H, R1=4-(biphenyl), R2=4-CF3—C6H4] | 14.7 µM | < 4.21 | 8 µg/mL (≈ 19.6 µM) | 8 µg/mL (≈ 19.6 µM) | 29.4 µM |  |  |  |  |  |
| O=C1O/C(=C\c2cccc3ccccc23)C(O)=C1c1ccc(-c2ccccc2)cc1 [R=H, R1=4-biphenyl, R2=1-naphthyl] | 12.8 µM | 4.42 | 8 µg/mL (≈ 20.5 µM) | 4 µg/mL (≈ 10.2 µM) | 48.7 µM |  |  |  |  |  |
